Laboratory results reported in patent US12318388B2, “Pyrimidine derivatives for prevention and treatment of gram-negative bacterial infection, contamination and fouling” (UNIVERSITÉ DE LIÈGE, priority 2019, dated 2025).
≈ marks a conversion by molar mass, not a printed value.

What was measured:
[1] = test system: Pseudomonas aeruginosa (ATCC27853); assay: Minimal Inhibitory Concentration (MIC) on Pseudomonas aeruginosa with or without PMBN; format: cell-based; conditions: Pseudomonas aeruginosa (ATCC 27853); for Minimal inhibitory concentration without PMBN: molecule alone; for Minimal inhibitory concentration With PMBN: together with PMBN at 0.5 μg/ml
Procedure: A single colony grown on an tryptic soy agar plate is resuspended and cultured in tryptic soy broth medium overnight (O/N) in aerobic conditions (37° C. with 220 rpm shaking), next day a 1:100 inoculum in Mueller-Hinton broth (MHB) is incubated in aerobic conditions for 3h (OD=0.5-0.6) and an inoculum of 1:1000 dilution, corresponding to 1-3×10^5 CFU/ml, is incubated in presence or absence of different concentrations of the tested molecules in 1% DMSO (vehicle) with or without PMBN at 0.5 μg/ml. After 28-30h growth the OD of each culture was measured at 600 nm (OD600) in a spectrophotometer (Victor 3-Perkin Elmer). The MIC represents the concentration at which there is no visible growth of bacteria, i.e. ΔOD at 600 nm equal to zero (blank is the medium alone) wherein ΔOD is the difference between the resulting optical density (OD) with the molecule together with PMBN, and the optical density (OD) of the blank (blank is the medium) alone.

[2] = test system: Escherichia coli (ATCC 8739); assay: Minimal Inhibitory Concentration (MIC) on Escherichia coli with or without PMBN, OD600 after O/N growth; format: cell-based; conditions: for MIC / Minimal inhibitory concentration With PMBN: E. coli (ATCC 8739); for MIC: molecule alone; for Minimal inhibitory concentration With PMBN: together with PMBN at 40 μg/ml
Procedure: The Minimal Inhibitory Concentration (MIC) of molecules 2329, 2412, 2452 and 2461 together with polymyxin B nonapeptide (PMBN) was determined on Escherichia coli (ATCC 8739) according to EUCAST (European Committee on Antimicrobial Susceptibility Testing) recommendations.
(§1) Briefly, a single colony grown on a Luria-Bertani Agar (LB) plate was resuspended and cultured in the LB medium overnight (O/N) in aerobic conditions (37° C. with 220 rpm shaking), next day a 1:50 inoculum in Mueller-Hinton broth (MHB) was incubated in aerobic conditions for 1h30 (OD=0.08-0.1) and an inoculum of 1:300 dilution, corresponding to 3×10^6 CFU/ml, was incubated in presence or absence of different concentrations of the molecules in 1% DMSO (vehicle) with or without Polymyxin B nonapeptide (PMBN) at 40 μg/ml. After O/N growth the OD of each culture was measured at 600 nm in a spectrophotometer (OD600). The MIC represents the concentration at which there is no visible growth of bacteria, i.e. ΔOD at 600 nm equal to zero wherein ΔOD is the difference between the resulting optical density (OD) with the molecule together with PMBN, and the optical density (OD) of the blank (blank is the medium) alone.
(§2) A single colony grown on an Lurian-Bertani (LB) agar plate is resuspended and cultured in LB medium overnight (O/N) in aerobic conditions (37° C. with 220 rpm shaking), next day a 1:50 inoculum in Mueller-Hinton broth (MHB) is incubated in aerobic conditions for 1h30 (OD=0.08-0.1) and an inoculum of 1:300 dilution, corresponding to 3×10^6 CFU/ml, is incubated in presence or absence of different concentrations of the tested molecules in 1% DMSO (vehicle) with or without PMBN at 40 μg/ml. After O/N growth the OD of each culture was measured at 600 nm (OD600) in a spectrophotometer (Victor 3-Perkin Elmer). The MIC represents the concentration at which there is no visible growth of bacteria, i.e. ΔOD at 600 nm equal to zero wherein ΔOD is the difference between the resulting optical density (OD) with the molecule together with PMBN, and the optical density (OD) of the blank (blank is the medium) alone.
as §1, with “cultured in LB medium” for “cultured in the LB medium”, “of the above-mentioned molecules in” for “of the molecules in”
as §2, with “a Luria-Bertani” for “an Lurian-Bertani”, “above-mentioned pyrazolopyrimidine molecule” for “tested molecules”, “alone. […]” for “alone.”

[3] = 100 μM together with 40 μg/ml PMBN
[4] = with 10 to 50 µg/ml PMBN, particularly 40 μg/ml

SMILES | Minimal inhibitory concentration without PMBN [1] [µM] | Minimal inhibitory concentration With PMBN [1] [µM] | MIC [2] [µM] | Minimal inhibitory concentration With PMBN [2] [µM] | MIC ([2]; Escherichia coli, ATCC8739) [µM] | OD600 nm after O/N growth of Escherichia coli (FIG. 4) ([2]; 50 μM with 40 μg/ml PMBN) | Activity against Escherichia coli (ATCC 8739), conclusion ([2]; with 40 μg/ml PMBN) | Antibacterial activity against E. coli (ATCC8739) [2] | OD600 nm after O/N growth of Escherichia coli (FIG. 4) [2, 3] | Activity against Escherichia coli (ATCC 8739), conclusion [2, 4] | OD600 nm after O/N growth of Escherichia coli (FIG. 4) ([2]; 20 μM with 40 μg/ml PMBN)
C=CCn1cnc2c(N[C@@H]3C[C@H]3c3ccc(F)c(F)c3)nc(SCCC)nc21 [molecule 2412, 9-allyl-N-((1R,2S)-2-(3,4-difluorophenyl)cyclopropyl)-2-(propylthio)-9H-purin-6-amine] | >100 | 50 (≈ 20.1 µg/mL) | >100 | 50 (≈ 20.1 µg/mL) | > 100 |  |  |  |  |  | 
CSc1nc(N[C@@H]2C[C@H]2c2ccc(F)c(F)c2)c2cnn(C)c2n1 [molecule 2539, N-((1R,2S)-2-(3,4-difluorophenyl)cyclopropyl)-1-methyl-6-(methylthio)-1H-pyrazolo[3,4-d]pyrimidin-4-amine] |  |  | >100 | 25 (≈ 8.68 µg/mL) | > 100 | killed all bacteria | bactericidal activity |  |  |  | 
CCCCOc1nc(NC2CC2)c2ncn(Cc3c(F)ccc(C)c3F)c2n1 [molecule 38z″, 2-Butoxy-N-cyclopropyl-9-(2,6-difluoro-3-methylbenzyl)-9H-purin-6-amine, reference compound] |  |  |  | > 100 |  |  |  | no antibacterial activity | did not differ from vehicle control | no antibacterial activity | 
CCn1cnc2c(N[C@@H]3C[C@H]3c3ccc(F)c(F)c3)nc(SC)nc21 [molecule 2511, N-((1R,2S)-2-(3,4-difluorophenyl)cyclopropyl)-9-ethyl-2-(methylthio)-9H-purin-6-amine] |  |  | >100 | 50 (≈ 18.1 µg/mL) | > 100 | killed all bacteria | bactericidal activity |  |  |  | 
CCCCOc1nc(NCc2ccccc2)c2ncn(Cc3c(F)ccc(C)c3F)c2n1 [molecule 39z″, N-Benzyl-2-butoxy-9-(2,6-difluoro-3-methylbenzyl)-9H-purin-6-amine, reference compound] |  |  |  | > 100 |  |  |  | no antibacterial activity | did not differ from vehicle control | no antibacterial activity | 
CCCCCOc1nc(NCc2ccccc2)c2ncn(Cc3c(F)ccc(C)c3F)c2n1 [molecule 40z″, N-benzyl-9-(2,6-difluoro-3-methylbenzyl)-2(pentyloxy)-9H-purin-6-amine, reference compound] |  |  |  | > 100 |  |  |  | no antibacterial activity | did not differ from vehicle control | no antibacterial activity | 
CCSc1nc(N[C@@H]2C[C@H]2c2ccc(F)c(F)c2)c2ncn(C)c2n1 [molecule 2525, N-((1R,2S)-2-(3,4-difluorophenyl)cyclopropyl)-2-(ethylthio)-9-methyl-9H-purin-6-amine] |  |  | >100 | 50 (≈ 18.1 µg/mL) | > 100 | killed all bacteria | bactericidal activity |  |  |  | 
CCCCSc1nc(N[C@@H]2C[C@H]2c2ccc(F)c(F)c2)c2ncn(C)c2n1 [molecule 2833, 2-(butylthio)-N-((1R,2S)-2-(3,4-difluorophenyl)cyclopropyl)-9-methyl-9H-purin-6-amine] |  |  | >100 | 90 (≈ 35.1 µg/mL) | > 100 |  |  |  |  |  | 
CCCCSc1nc(NCc2c(F)ccc(C)c2F)c2ncn(Cc3c(F)ccc(C)c3F)c2n1 [molecule 41z″, 2-(Butylthio)-N,9-bis(2,6-difluoro-3-methylbenzyl)-9H-purin-6-amine, reference compound] |  |  |  | > 100 |  |  |  | no antibacterial activity | did not differ from vehicle control | no antibacterial activity | 
CCCSc1nc(N[C@@H]2C[C@H]2c2ccc(F)c(F)c2)c2ncn([C@@H]3C[C@H](O)[C@@H](O)[C@H]3O)c2n1 [molecule 2461, (1S,2R,3S,4R)-4-(6-(((1R,2S)-2-(3,4-difluorophenyl)cyclopropyl)amino)-2-(propylthio)-9H-purin-9-yl)cyclopentane-1,2,3-triol] | >100 | 50 (≈ 23.9 µg/mL) | >100 | 10 (≈ 4.78 µg/mL) | > 100 |  | bactericidal activity |  |  |  | killed all bacteria
C#CCn1cnc2c(N[C@@H]3C[C@H]3c3ccc(F)c(F)c3)nc(SCCC)nc21 [molecule 2452, N-((1R,2S)-2-(3,4-difluorophenyl)cyclopropyl)-9-(prop-2-yn-1-yl)-2-(propylthio)-9H-purin-6-amine] | >100 | 50 (≈ 20 µg/mL) | >100 | 10 (≈ 3.99 µg/mL) | > 100 |  |  |  |  |  | 
